{"source": "patent US20260130395A1", "about": "“Water Dispersible Botanical Compositions” (Aquila Black Limited, priority 2021, published 2026)", "key": {"[1]": {"assay": "Stability of cannabinoid compounds and Vitamin E components in Beverage 1 (AB White) by LCMSMS", "format": "physicochemical", "settings": "AB White stored at 21-25° C."}, "[2]": {"assay": "Stability of cannabinoid entourage and Vitamin E components of the powder concentrate by LCMSMS", "format": "physicochemical", "settings": "powder stored at 21-25° C.", "protocol": "At each time period, 0.05 g of powder was dissolved in 10 ml-15 of ethanol, diluted to fall within the analytical range, and injected into the LCMSMS for analysis."}}}
{"smiles": "CCCCCc1cc(O)c2c(c1)OC(C)(C)c1ccc(C)cc1-2", "note": "[CBN, cannabinol]", "values": [{"measurement": "Stability of Plant-Derived Cannabinoid Compounds in AB White, 21-25° C.", "setting": "[1]; 29 days", "value": 2.75, "unit": "µg/mL"}, {"measurement": "Stability of Plant-Derived Cannabinoid Compounds in AB White, 21-25° C.", "setting": "[1]; 30 days", "value": 2.72, "unit": "µg/mL"}, {"measurement": "Stability of Plant-Derived Cannabinoid Compounds in AB White, 21-25° C.", "setting": "[1]; 60 days", "value": 2.63, "unit": "µg/mL"}, {"measurement": "Stability of Plant-Derived Cannabinoid Compounds in AB White, 21-25° C.", "setting": "[1]; 90 days", "value": 2.66, "unit": "µg/mL"}, {"measurement": "Stability of Plant-Derived Cannabinoid Compounds in AB White, 21-25° C.", "setting": "[1]; 120 days", "value": 2.67, "unit": "µg/mL"}, {"measurement": "Stability of Plant-Derived Cannabinoid Compounds in AB White, 21-25° C.", "setting": "[1]; 150 days", "value": 2.77, "unit": "µg/mL"}, {"measurement": "Stability of Plant-Derived Cannabinoid Compounds in AB White, 21-25° C.", "setting": "[1]; 180 days", "value": 2.68, "unit": "µg/mL"}, {"measurement": "Stability of Plant-Derived Cannabinoid Compounds in AB White, 21-25° C.", "setting": "[1]; 210 days", "value": 2.74, "unit": "µg/mL"}, {"measurement": "Stability of Plant-Derived Cannabinoid Compounds in AB White, 21-25° C.", "setting": "[1]; 240 days", "value": 2.71, "unit": "µg/mL"}, {"measurement": "Stability of Plant-Derived Cannabinoid Compounds in AB White, 21-25° C.", "setting": "[1]; 270 days", "value": 2.67, "unit": "µg/mL"}, {"measurement": "Stability of Plant-Derived Cannabinoid Compounds in AB White, 21-25° C.", "setting": "[1]; 300 days", "value": 2.73, "unit": "µg/mL"}, {"measurement": "Stability of Plant-Derived Cannabinoid Compounds in AB White, 21-25° C.", "setting": "[1]; 330 days", "value": 2.75, "unit": "µg/mL"}, {"measurement": "Stability of Plant-Derived Cannabinoid Compounds in AB White, 21-25° C.", "setting": "[1]; 360 days", "value": 2.67, "unit": "µg/mL"}, {"measurement": "Stability of Plant-Derived Cannabinoid Compounds in AB White, 21-25° C.", "setting": "[1]; 390 days", "value": 2.66, "unit": "µg/mL"}, {"measurement": "Stability of Plant-Derived Cannabinoid Compounds in AB White, 21-25° C.", "setting": "[1]; 420 days", "value": 2.62, "unit": "µg/mL"}, {"measurement": "Stability of Plant-Derived Cannabinoid Compounds in AB White, 21-25° C.", "setting": "[1]; 450 days", "value": 2.61, "unit": "µg/mL"}, {"measurement": "Stability of Plant-Derived Cannabinoid Compounds in AB White, 21-25° C.", "setting": "[1]; 480 days", "value": 2.57, "unit": "µg/mL"}, {"measurement": "Stability of Plant-Derived Cannabinoid Compounds in AB White, 21-25° C.", "setting": "[1]; 510 days", "value": 2.66, "unit": "µg/mL"}, {"measurement": "Stability of Plant-Derived Cannabinoid Compounds in AB White, 21-25° C.", "setting": "[1]; 540 days", "value": 2.63, "unit": "µg/mL"}, {"measurement": "Stability of Plant-Derived Cannabinoid Compounds in AB White, 21-25° C.", "setting": "[1]; 570 days", "value": 2.56, "unit": "µg/mL"}, {"measurement": "Stability of Plant-Derived Cannabinoid Compounds in Powder Concentrate", "setting": "[2]; 0 days", "value": 0.480, "unit": "mg/g powder"}, {"measurement": "Stability of Plant-Derived Cannabinoid Compounds in Powder Concentrate", "setting": "[2]; 1 days", "value": 0.471, "unit": "mg/g powder"}, {"measurement": "Stability of Plant-Derived Cannabinoid Compounds in Powder Concentrate", "setting": "[2]; 2 days", "value": 0.488, "unit": "mg/g powder"}, {"measurement": "Stability of Plant-Derived Cannabinoid Compounds in Powder Concentrate", "setting": "[2]; 3 days", "value": 0.474, "unit": "mg/g powder"}, {"measurement": "Stability of Plant-Derived Cannabinoid Compounds in Powder Concentrate", "setting": "[2]; 5 days", "value": 0.491, "unit": "mg/g powder"}, {"measurement": "Stability of Plant-Derived Cannabinoid Compounds in Powder Concentrate", "setting": "[2]; 8 days", "value": 0.469, "unit": "mg/g powder"}, {"measurement": "Stability of Plant-Derived Cannabinoid Compounds in Powder Concentrate", "setting": "[2]; 9 days", "value": 0.466, "unit": "mg/g powder"}, {"measurement": "Stability of Plant-Derived Cannabinoid Compounds in Powder Concentrate", "setting": "[2]; 10 days", "value": 0.499, "unit": "mg/g powder"}, {"measurement": "Stability of Plant-Derived Cannabinoid Compounds in Powder Concentrate", "setting": "[2]; 11 days", "value": 0.494, "unit": "mg/g powder"}, {"measurement": "Stability of Plant-Derived Cannabinoid Compounds in Powder Concentrate", "setting": "[2]; 12 days", "value": 0.496, "unit": "mg/g powder"}, {"measurement": "Stability of Plant-Derived Cannabinoid Compounds in Powder Concentrate", "setting": "[2]; 15 days", "value": 0.472, "unit": "mg/g powder"}, {"measurement": "Stability of Plant-Derived Cannabinoid Compounds in Powder Concentrate", "setting": "[2]; 16 days", "value": 0.483, "unit": "mg/g powder"}, {"measurement": "Stability of Plant-Derived Cannabinoid Compounds in Powder Concentrate", "setting": "[2]; 17 days", "value": 0.465, "unit": "mg/g powder"}, {"measurement": "Stability of Plant-Derived Cannabinoid Compounds in Powder Concentrate", "setting": "[2]; 18 days", "value": 0.470, "unit": "mg/g powder"}, {"measurement": "Stability of Plant-Derived Cannabinoid Compounds in Powder Concentrate", "setting": "[2]; 19 days", "value": 0.490, "unit": "mg/g powder"}, {"measurement": "Stability of Plant-Derived Cannabinoid Compounds in Powder Concentrate", "setting": "[2]; 22 days", "value": 0.486, "unit": "mg/g powder"}, {"measurement": "Stability of Plant-Derived Cannabinoid Compounds in Powder Concentrate", "setting": "[2]; 23 days", "value": 0.469, "unit": "mg/g powder"}, {"measurement": "Stability of Plant-Derived Cannabinoid Compounds in Powder Concentrate", "setting": "[2]; 24 days", "value": 0.465, "unit": "mg/g powder"}, {"measurement": "Stability of Plant-Derived Cannabinoid Compounds in Powder Concentrate", "setting": "[2]; 25 days", "value": 0.486, "unit": "mg/g powder"}, {"measurement": "Stability of Plant-Derived Cannabinoid Compounds in Powder Concentrate", "setting": "[2]; 26 days", "value": 0.486, "unit": "mg/g powder"}, {"measurement": "Stability of Plant-Derived Cannabinoid Compounds in Powder Concentrate", "setting": "[2]; 29 days", "value": 0.484, "unit": "mg/g powder"}, {"measurement": "Stability of Plant-Derived Cannabinoid Compounds in Powder Concentrate", "setting": "[2]; 30 days", "value": 0.476, "unit": "mg/g powder"}, {"measurement": "Stability of Plant-Derived Cannabinoid Compounds in Powder Concentrate", "setting": "[2]; 60 days", "value": 0.489, "unit": "mg/g powder"}, {"measurement": "Stability of Plant-Derived Cannabinoid Compounds in Powder Concentrate", "setting": "[2]; 90 days", "value": 0.483, "unit": "mg/g powder"}, {"measurement": "Stability of Plant-Derived Cannabinoid Compounds in Powder Concentrate", "setting": "[2]; 120 days", "value": 0.498, "unit": "mg/g powder"}, {"measurement": "Stability of Plant-Derived Cannabinoid Compounds in Powder Concentrate", "setting": "[2]; 150 days", "value": 0.500, "unit": "mg/g powder"}, {"measurement": "Stability of Plant-Derived Cannabinoid Compounds in Powder Concentrate", "setting": "[2]; 180 days", "value": 0.464, "unit": "mg/g powder"}, {"measurement": "Stability of Plant-Derived Cannabinoid Compounds in Powder Concentrate", "setting": "[2]; 210 days", "value": 0.501, "unit": "mg/g powder"}, {"measurement": "Stability of Plant-Derived Cannabinoid Compounds in Powder Concentrate", "setting": "[2]; 240 days", "value": 0.467, "unit": "mg/g powder"}, {"measurement": "Stability of Plant-Derived Cannabinoid Compounds in Powder Concentrate", "setting": "[2]; 270 days", "value": 0.464, "unit": "mg/g powder"}, {"measurement": "Stability of Plant-Derived Cannabinoid Compounds in Powder Concentrate", "setting": "[2]; 300 days", "value": 0.469, "unit": "mg/g powder"}, {"measurement": "Stability of Plant-Derived Cannabinoid Compounds in Powder Concentrate", "setting": "[2]; 330 days", "value": 0.502, "unit": "mg/g powder"}, {"measurement": "Stability of Plant-Derived Cannabinoid Compounds in Powder Concentrate", "setting": "[2]; 360 days", "value": 0.499, "unit": "mg/g powder"}, {"measurement": "Stability of Plant-Derived Cannabinoid Compounds in Powder Concentrate", "setting": "[2]; 390 days", "value": 0.479, "unit": "mg/g powder"}, {"measurement": "Stability of Plant-Derived Cannabinoid Compounds in Powder Concentrate", "setting": "[2]; 420 days", "value": 0.481, "unit": "mg/g powder"}, {"measurement": "Stability of Plant-Derived Cannabinoid Compounds in Powder Concentrate", "setting": "[2]; 450 days", "value": 0.480, "unit": "mg/g powder"}, {"measurement": "Stability of Plant-Derived Cannabinoid Compounds in Powder Concentrate", "setting": "[2]; 480 days", "value": 0.485, "unit": "mg/g powder"}, {"measurement": "Stability of Plant-Derived Cannabinoid Compounds in Powder Concentrate", "setting": "[2]; 510 days", "value": 0.499, "unit": "mg/g powder"}, {"measurement": "Stability of Plant-Derived Cannabinoid Compounds in Powder Concentrate", "setting": "[2]; 540 days", "value": 0.492, "unit": "mg/g powder"}, {"measurement": "Stability of Plant-Derived Cannabinoid Compounds in Powder Concentrate", "setting": "[2]; 570 days", "value": 0.471, "unit": "mg/g powder"}]}
